Test results from US11325899B2, “Benzofurane and benzothiophene derivatives as PGE2 receptor modulators” (IDORSIA PHARMACEUTICALS LTD, priority 2017, dated 2022).

Key:
[1] = molecular target: T1, PTGER2 (EP2) (Homo sapiens, UniProt P43116); experiment: hEP2 b-arrestin assay (PathHunter HEK 293 PTGER2 b-arrestin cells); format: cell-based; details: antagonistic activity, beta-arrestin assay; read-out: hEP2 b-arr IC50
T1 construct: host or cells: HEK 293 (PathHunter PTGER2 b-arrestin cell line)
Method in brief: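 Antagonism measured as inhibition of PGE2-driven β-arrestin 2 recruitment (enzyme fragment complementation, luminescence) in engineered HEK293 EP2 cells. Agonist: 5 μM PGE2, ~EC80, 120 min at 37 °C after 15 min compound preincubation; test range 10 μM-2 nM or 1 μM-0.2 nM, duplicates, IC50 fitted.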

[2] = molecular target: T2, PTGER4 (EP4) (Homo sapiens, UniProt P35408); experiment: hEP4 b-arrestin assay (PathHunter HEK 293 PTGER4 b-arrestin cells); format: cell-based; details: antagonistic activity, beta-arrestin assay; read-out: hEP4 b-arr IC50
T2 construct: host or cells: HEK 293 (PathHunter PTGER4 b-arrestin cell line)
Method in brief: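 β-Arrestin recruitment to EP4 was read as enzyme-fragment-complementation chemiluminescence in stably transfected HEK 293 cells. After 15 min compound preincubation at 37 °C (ranges 10 μM–2 nM or 1 μM–0.2 nM), cells were stimulated 120 min with PGE2 at 20 nM, its EC80. IC50 values were fitted from duplicates, with repeat measurements averaged.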

T1 sequence (P43116 whole entry): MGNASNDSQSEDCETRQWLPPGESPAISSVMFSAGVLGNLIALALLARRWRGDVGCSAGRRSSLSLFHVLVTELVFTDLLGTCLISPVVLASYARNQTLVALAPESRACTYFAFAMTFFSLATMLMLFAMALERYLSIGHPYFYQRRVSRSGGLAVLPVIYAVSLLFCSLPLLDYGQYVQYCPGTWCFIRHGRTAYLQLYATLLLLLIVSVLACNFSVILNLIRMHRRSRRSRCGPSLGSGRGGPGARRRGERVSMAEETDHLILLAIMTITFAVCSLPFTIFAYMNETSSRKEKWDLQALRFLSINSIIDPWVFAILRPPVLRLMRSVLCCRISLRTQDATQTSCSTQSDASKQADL
T2 sequence (P35408 whole entry): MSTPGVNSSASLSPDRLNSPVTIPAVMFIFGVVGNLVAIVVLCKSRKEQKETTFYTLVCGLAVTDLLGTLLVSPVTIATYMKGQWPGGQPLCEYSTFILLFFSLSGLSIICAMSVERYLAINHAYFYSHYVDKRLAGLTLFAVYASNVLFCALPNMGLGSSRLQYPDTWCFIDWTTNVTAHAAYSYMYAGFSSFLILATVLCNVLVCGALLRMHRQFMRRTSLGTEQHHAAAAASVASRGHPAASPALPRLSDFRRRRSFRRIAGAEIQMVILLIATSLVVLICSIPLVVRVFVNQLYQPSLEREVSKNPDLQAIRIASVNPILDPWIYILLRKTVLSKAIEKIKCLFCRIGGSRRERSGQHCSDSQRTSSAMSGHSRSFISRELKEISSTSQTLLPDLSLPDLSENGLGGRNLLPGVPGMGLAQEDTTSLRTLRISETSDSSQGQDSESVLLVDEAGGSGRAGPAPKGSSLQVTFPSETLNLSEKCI

`CSc1cc(-c2cc(NCCc3c(C)oc4c(C)cc(F)cc34)ncn2)ccc1C(=O)O` [Example 16, 4-{6-[2-(5-Fluoro-2,7-dimethyl-benzofuran-3-yl)-ethylamino]-pyrimidin-4-yl}-2-methylsulfanyl-benzoic acid] showed an IC50 [1] of 13 nM and an IC50 [2] of 391 nM.

For `CSc1cc(-c2cc(NCCc3c(C)sc4c(Cl)ccc(Cl)c34)ncn2)ccc1C(=O)O` [Example 20, 4-{6-[2-(4,7-Dichloro-2-methyl-benzo[b]thiophen-3-yl)-ethylamino]-pyrimidin-4-yl}-2-methylsulfanyl-benzoic acid], the IC50 [1] was 30 nM and the IC50 [2] was 762 nM.

`CCOc1cc(-c2cc(NCCc3c(C)sc4c(Cl)cc(F)cc34)ncn2)ccc1C(=O)O` [Example 65, 4-{6-[2-(7-Chloro-5-fluoro-2-methyl-benzo[b]thiophen-3-yl)-ethylamino]-pyrimidin-4-yl}-2-ethoxy-benzoic acid] was tested, and the IC50 [1] was 16 nM and the IC50 [2] was 428 nM.

Work on `CSc1cc(-c2cc(NCCc3c(C)oc4ccccc34)ncn2)ccc1C(=O)O` [Example 18, 4-{6-[2-(2-Methyl-benzofuran-3-yl)-ethylamino]-pyrimidin-4-yl}-2-methylsulfanyl-benzoic acid] yielded an IC50 [1] of 1 nM and an IC50 [2] of 1200 nM.

With `COc1ccc(F)c2c(CCNc3cc(-c4ccc(C(=O)O)c(OC5CC5)c4)ncn3)c(C)sc12` [Example 84, 2-Cyclopropoxy-4-{6-[2-(4-fluoro-7-methoxy-2-methyl-benzo[b]thiophen-3-yl)-ethylamino]-pyrimidin-4-yl}-benzoic acid] the IC50 [1] was 21 nM and the IC50 [2] was 80 nM.

Compound `CSc1cc(-c2cc(NCCc3c(C)sc4c(C)c(F)ccc34)ncn2)ccc1C(=O)O` [Example 21, 4-{6-[2-(6-Fluoro-2,7-dimethyl-benzo[b]thiophen-3-yl)-ethylamino]-pyrimidin-4-yl}-2-methylsulfanyl-benzoic acid] has an IC50 [1] of 4 nM and an IC50 [2] of 283 nM.

Work on `CCOc1cc(-c2cc(NCCc3c(C)sc4c(C)cccc34)ncn2)ccc1C(=O)O` [Example 60, 4-{6-[2-(2,7-Dimethyl-benzo[b]thiophen-3-yl)-ethylamino]-pyrimidin-4-yl}-2-ethoxy-benzoic acid] yielded an IC50 [1] of 7 nM and an IC50 [2] of 372 nM.

For `CCCSc1cc(-c2cc(NCCc3c(C)sc4ccccc34)ncn2)ccc1C(=O)O` [Example 88, 4-{6-[2-(2-Methyl-benzo[b]thiophen-3-yl)-ethylamino]-pyrimidin-4-yl}-2-propylsulfanyl-benzoic acid], the IC50 [1] was 21 nM and the IC50 [2] was 1030 nM.

`CCOc1cc(-c2cc(NCCc3c(C)sc4c(OC)ccc(F)c34)ncn2)ccc1C(=O)O` [Example 55, 2-Ethoxy-4-{6-[2-(4-fluoro-7-methoxy-2-methyl-benzo[b]thiophen-3-yl)-ethylamino]-pyrimidin-4-yl}-benzoic acid] was tested, and the IC50 [1] was 15 nM and the IC50 [2] was 117 nM.

`CCOc1cc(-c2cc(NCCc3c(C)sc4c(C)ccc(F)c34)ncn2)ccc1C(=O)O` [Example 61, 2-Ethoxy-4-{6-[2-(4-fluoro-2,7-dimethyl-benzo[b]thiophen-3-yl)-ethylamino]-pyrimidin-4-yl}-benzoic acid] gave an IC50 [1] of 22 nM and an IC50 [2] of 245 nM.

`COc1cc(-c2cc(NCCc3c(C)sc4c(OC)ccc(Cl)c34)ncn2)ccc1C(=O)O` [Example 40, 4-{6-[2-(4-Chloro-7-methoxy-2-methyl-benzo[b]thiophen-3-yl)-ethylamino]-pyrimidin-4-yl}-2-methoxy-benzoic acid] showed an IC50 [1] of 48 nM and an IC50 [2] of 680 nM.

`Cc1cc(-c2cc(NCCc3c(C)oc4c(C)cc(F)cc34)ncn2)sc1C(=O)O` [Example 2, 5-{6-[2-(5-Fluoro-2,7-dimethyl-benzofuran-3-yl)-ethylamino]-pyrimidin-4-yl}-3-methyl-thiophene-2-carboxylic acid] gave an IC50 [1] of 25 nM and an IC50 [2] of 189 nM.

`CCc1oc2c(C)cc(F)cc2c1CCNc1cc(-c2ccc(C(=O)O)c(SC)c2)ncn1` [Example 22, 4-{6-[2-(2-Ethyl-5-fluoro-7-methyl-benzofuran-3-yl)-ethylamino]-pyrimidin-4-yl}-2-methylsulfanyl-benzoic acid] showed an IC50 [1] of 101 nM and an IC50 [2] of 493 nM.

`CSc1cc(-c2cc(NCCc3c(C)sc4c(Cl)cc(F)cc34)ncn2)ccc1C(=O)O` [Example 23, 4-{6-[2-(7-Chloro-5-fluoro-2-methyl-benzo[b]thiophen-3-yl)-ethylamino]-pyrimidin-4-yl}-2-methylsulfanyl-benzoic acid] showed an IC50 [1] of 9 nM and an IC50 [2] of 488 nM.

With `CCCc1cc(-c2cc(NCCc3c(C)sc4c(C)cc(F)cc34)ncn2)ccc1C(=O)O` [Example 45, 4-{6-[2-(5-Fluoro-2,7-dimethyl-benzo[b]thiophen-3-yl)-ethylamino]-pyrimidin-4-yl}-2-propyl-benzoic acid] the IC50 [1] was 20 nM and the IC50 [2] was 57 nM.

Compound `CCOc1cc(-c2cc(NCCc3c(C#N)sc4c(OC)cccc34)ncn2)ccc1C(=O)O` [Example 54, 4-{6-[2-(2-Cyano-7-methoxy-benzo[b]thiophen-3-yl)-ethylamino]-pyrimidin-4-yl}-2-ethoxy-benzoic acid] has an IC50 [1] of 194 nM and an IC50 [2] of 60 nM.

`CCOc1cc(-c2cc(NCCc3c(C)sc4c(C)ccc(Cl)c34)ncn2)ccc1C(=O)O` [Example 66, 4-{6-[2-(4-Chloro-2,7-dimethyl-benzo[b]thiophen-3-yl)-ethylamino]-pyrimidin-4-yl}-2-ethoxy-benzoic acid] gave an IC50 [1] of 27 nM and an IC50 [2] of 407 nM.
